What all share (format): cell-based
Assay [1] deals with human PBMCs. The experiment in a line: IFNγ secretion by human PBMCs (ELISA). The conditions noted are these: two days post-hyperactivation. On the procedure:
(§1) Isolation of PBMCs from Human and Canine Whole Blood. PBMCs were isolated from whole blood using density gradient centrifugation with Ficoll-Paque PLUS (Cytivia). Whole blood was diluted 1:1 with PBS, layered on top of Ficoll-Paque PLUS and centrifuged at 1000×g for 30 minutes at room temperature. PBMCs were collected, washed twice in PBS, and incubated with Ack lysis buffer (Lonza) to remove any remaining red blood cells.
(§2) Cell Culture and Stimulation. Immediately following isolation, PBMCs were plated in RPMI medium containing 10% FBS, 50 units/mL penicillin, […] streptomycin, 2 mM L-glutamine, 1 mM sodium pyruvate, and […] beta-mercaptoethanol (R10 media). […]
(§3) Endpoint Analyses. […] Half of the media volume in the wells was collected for cytokine quantification by Enzyme-Linked Immunosorbent Assay (ELISA) or Lumit™ Bioluminescent assay, while the remaining media and cells were used to quantify cell viability by assessing metabolic activity.
(§4) Quantification of Cytokine Secretion. IL-1β secretion from human PBMCs was assessed using one of the following kits: ELISA MAX Deluxe Set Human IL-1β kit (Biolegend), Invitrogen Human IL-1β kit, or the Lumit™ Human IL-1β Immunoassay (Promega). IFNγ secretion from human PBMCs was assessed using the ELISA MAX Deluxe Set Human IFNγ (Biolegend) and TNFα secretion from human PBMCs was assessed using the Human TNFα Uncoated ELISA kit (Invitrogen). […]
A general note: An ELISA detects its analyte on a solid surface through an enzyme-linked reagent.

The next assay relates to canine PBMCs. Put plainly: IL-1β secretion by canine PBMCs (ELISA). The conditions noted are these: two days in culture, R848 1 μg/mL, 22:0 LYSO PC 82.5 μM, concentration per mL and fold change per donor relative to R848 alone. The protocol:
as §1, §2, §3, §4

Assay [2] has as its system human PBMCs. The experiment in a line: IL-1β secretion by human PBMCs (ELISA or Lumit). The note with it: two days in culture, R848 1 μg/mL. On the procedure:
as §1, §2, §3, §4

Regarding `Nc1nc2c(ncn2[C@@H]2O[C@@H]3COP(=O)(O)O[C@H]4[C@@H](O)[C@H](n5cnc6c(N)ncnc65)O[C@@H]4COP(=O)(O)O[C@@H]2[C@@H]3O)c(=O)[nH]1` [2′3′cGAMP, 2′3′ cGAMP, reference compound], the “fold change per donor in IFNγ secretion relative to R848 alone” value in the assay on human PBMCs [1] is “neither GM-CSF nor 2′3′cGAMP elicited a substantial fold change”. The IL-1β secretion entry in the assay with canine PBMCs is listed as “neither GM-CSF nor 2′3′cGAMP induced significant IL-1β secretion”.

For the compound “GM-CSF: human GM-CSF (Peprotech), innate agonist added at 10 ng/mL”, in the assay with human PBMCs [1], the “fold change per donor in IFNγ secretion relative to R848 alone” value is “neither GM-CSF nor 2′3′cGAMP elicited a substantial fold change”. Further, the IL-1β secretion entry was “did not induce levels of IL-1β secretion from human PBMCs significantly above background levels” with human PBMCs [2] and “neither GM-CSF nor 2′3′cGAMP induced significant IL-1β secretion” in the assay with canine PBMCs.

Values taken from patent US20250134994A1, “IMMUNOGENIC MRNA DELIVERY VEHICLES” (Corner Therapeutics, Inc., priority 2022, published 2025).
